Data on three compounds can be found in US12226507B2, “Use of dianhydrohexitol in oral and dental care to reduce the development of bacterial strains” (ROQUETTE FRERES, priority 2017, dated 2025).

What all share (format): cell-based
Assay [1] concerns Actinomyces oris. Put plainly: Bacterial growth of Actinomyces oris in the presence of polyols. Conditions: aerobic conditions, FIG. 6. The procedure: (§1) The growth of these strains was then measured in the presence of isosorbide, maltitol, xylitol, allulose, sorbitol powder and dextrose monohydrate in an unrefreshed culture medium, incubated at 37° C. for 48 hours or 72 hours under aerobic or anaerobic conditions. The growths were measured by bacterial counting on solid medium. The results are expressed in Log 10 (CFU/ml). The culture media used are the Bacto Brain Heart Infusion (ref. 237500-BD (BHI)) and Difco™ Brain Heart Infusion Agar (ref. 241830-BD (BHIa)) culture media.

Assay [2] concerns Streptococcus mutans. Put plainly: Bacterial growth of Streptococcus mutans strain from a healthy tooth, in the presence of polyols, counting on solid medium. The conditions noted are these: aerobic conditions, FIG. 1. How it is done:
as §1

Assay [3] has as its system oral bacterial strains. The assay is described as follows: Growth of the oral bacterial strains overall (summary of all strains tested). The procedure:
as §1

Assay [4] deals with Lactobacillus gasseri. The assay is described as follows: Bacterial growth of Lactobacillus gasseri in the presence of polyols. Conditions: anaerobic conditions, FIG. 3. How it is done: as §1
Assay [5] concerns Streptococcus mutans. Put plainly: Bacterial growth and biofilm of Streptococcus mutans strain from a decayed tooth, in the presence of polyols. Conditions: FIG. 2. How it is done:
The growth of these strains was then measured in the presence of isosorbide, maltitol, xylitol, allulose, sorbitol powder and dextrose monohydrate in an unrefreshed culture medium, […] conditions. The growths were measured by bacterial counting on solid medium. The results are expressed in Log 10 (CFU/ml). The culture media used are the Bacto Brain Heart Infusion (ref. 237500-BD (BHI)) and Difco™ Brain Heart Infusion Agar (ref. 241830-BD (BHIa)) culture media.

Assay [6] has as its system Actinomyces naeslundii. Put plainly: Bacterial growth of Actinomyces naeslundii in the presence of polyols. The conditions noted are these: for bacterial population: FIG. 4 as printed. The procedure: as §1

For `O=C(CO)C(O)C(O)C(O)CO` (stereo not shown) [allulose], in assay [1], the bacterial growth entry is listed as “slowed relative to the other polyols tested”.
Turning to `O[C@@H]1CO[C@H]2[C@@H]1OC[C@@H]2O` [isosorbide, 1,4:3,6-dianhydrosorbitol], the bacterial growth result is recorded as “decreases greatly over time in the presence of isosorbide, then stabilizes after 24 hours” in assay [1]; “remain absent” in assay [2] (T=24 hours); “remains absent” in assay [4] (T=24 hours); “varies little” in assay [5] (anaerobic conditions); “Very slowed growth” in assay [5] (strain from a decayed tooth); “remains low relative to the other polyols” in assay [6] (aerobic conditions, FIG. 5). For the same compound, the “bacterial population after 24 hours” value in assay [2] is on record as “declines slightly”. Moreover, the “kind of effect on the bacterial population” value in assay [2] was “bacteriostatic effect”; in assay [6] (anaerobic conditions), “bactericidal effect”. Also, in assay [3] (all strains and conditions tested), the “growth of the bacterial strains, all cases” value is “very significant decrease”. Moreover, in assay [3] (comparison with polyols of commercial toothpastes), the “level of performance relative to xylitol or sorbitol” value is recorded as “even higher than that observed with xylitol or sorbitol”. The “kind of effect, populations beyond 24 hours” value in assay [4] (beyond 24 hours) is given as “inhibitory effect”. The biofilm formed result in assay [5] (anaerobic conditions, after 96 hours of incubation) is “biofilm formed in the absence of isosorbide is much more pronounced than in the presence of isosorbide”. For the same compound, in assay [6] (aerobic conditions, from T=40 hours, FIG. 5), the “bacterial population from T=40 hours” value was “substantial decrease”. Moreover, the bacterial population entry in assay [6] (anaerobic conditions) is “falls constantly until it disappears completely”.
With `OC[C@@H](O)[C@H](O)[C@@H](O)CO` [xylitol, reference compound], the bacterial growth result in assay [1] is reported as “slowed relative to the other polyols tested”; in assay [6] (aerobic conditions, FIG. 5) it was “appears to further curb the bacterial growth than the other polyols tested”. Further, the bacterial population result in assay [6] (anaerobic conditions) is reported as “remains stable”.
